Test results as given in PubChem BioAssay AID977628 (Broad Institute, 2014).
Inconclusive results are not listed. The source made the active and inactive calls.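 Rule for the calls: active = compound lowering the normal-ribosome reporter at least twice as much as the humanized-ribosome reporter, growth loss under a set limit; inconclusive = no clear call, values can overlap the other calls; inactive = the rest.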

Columns and labels:
Experiment in all cases: growth of wild-type and h24-humanized E. coli strains – h24 mutant RFP vs wild-type GFP, cherry-pick, dose response (AID 977628)
[1] = tested on: E. coli h24 humanized mutant RFP strain growth, fluorescence, 24 h
[2] = tested on: E. coli WT GFP strain growth, fluorescence, 24 h
[3] = tested on: E. coli mixed WT/h24 culture total growth, OD600, 24 h

| Structure (SMILES) | AC50 [1] [µM] | AC50 [2] | AC50 [3] [µM] |
| --- | --- | --- | --- |
| O=C(CSCc1ccc(Br)cc1)NCc1ccccn1 | > 100 |  |  |
| O=c1[nH]n2c(-c3ccccc3)nc(O)c2c2ccccc12 | 36.6 | > 100 µM (inactive) |  |
| COc1ccc(CCNc2nc(-c3ccncc3)cs2)cc1OC | > 100 | > 100 µM (inactive) |  |
| O=S(=O)(NCc1ccc2c(c1)OCO2)c1ccc2c(c1)oc1ccccc12 | > 100 | > 100 µM (inactive) |  |
| O=C(NCc1ccccc1Cl)c1ccc2c(c1)SC1=NS(=O)(=O)CCN12 | > 100 |  |  |
| O=C(NCCCn1ccnc1)c1sc2cc([N+](=O)[O-])ccc2c1Cl | > 100 |  |  |
| O=C1c2ccccc2C(c2nnnn2C2CCCCC2)N1CCc1ccc(O)cc1 (configuration not stated) | > 100 |  |  |
| S=C1SCN(Cc2cccnc2)CN1Cc1cccnc1 | > 100 |  |  |
| Cc1nc2ncnn2c(N2CCC(C(=O)NC3CCCC3)CC2)c1Cc1ccccc1 | > 100 |  |  |
| O=C(O)c1ccc(-c2noc(-c3cccc(Cl)c3)n2)cc1 | > 100 | > 100 µM (inactive) |  |
| O=C(CSCc1cnn(-c2ccccc2)c1-n1cccc1)NCc1cccnc1 | > 100 |  |  |
| Cc1ccc(-c2nc3ccc(NS(=O)(=O)c4ccccc4)cc3[nH]2)o1 | 5.12 | > 100 µM (inactive) |  |
| COc1ccccc1OCC(=O)Nc1ccc(S(=O)(=O)N2CCCCCC2)cc1 | > 100 | > 100 µM (inactive) |  |
| CCc1cccc(NC(=O)CN(C)S(=O)(=O)c2cccc3cccnc23)c1 | > 100 |  |  |
| O=C(CN1C(=O)c2ccccc2C1=O)Nc1cccc(S(=O)(=O)Nc2ccccc2Cl)c1 | > 100 | > 100 µM (inactive) |  |
| CC(=O)Nc1nc(C)c(-c2csc(Nc3ccccn3)n2)s1 | > 100 | > 100 µM (inactive) |  |
| CCN(CC)CCN(C(=O)C1CCCCC1)c1nc2cc3c(cc2s1)OCO3 | > 100 | > 100 µM (inactive) |  |
| COCC(C)NC(=O)c1nn(Cc2ccccc2)c(=O)c2ccccc12 (configuration not stated) | > 100 |  |  |
| O=C(O)c1cccnc1SCc1ccccc1Cl | > 100 | > 100 µM (inactive) |  |
| COc1cc(C)ccc1OCc1cc(C(=O)N2CCC(c3ccc(F)cc3)C2)no1 (configuration not stated) | > 100 | > 100 µM (inactive) |  |
| COC(=O)c1ccccc1NC(=O)c1ccc2c(c1)CC(C)O2 (configuration not stated) | > 100 | > 100 µM (inactive) |  |
| CC(=O)Nc1cccc(OCc2ccc([N+](=O)[O-])cc2)c1 | > 100 |  |  |
| O=C(C1Cc2ccccc2CN1C(=O)c1ccccc1)N1CCN(c2ccccc2)CC1 (configuration not stated) | > 100 |  |  |

| Structure (SMILES) | AC50 [1] [µM] | AC50 [2] | AC50 [3] [µM] |
| --- | --- | --- | --- |
| CC(OC(=O)COc1ccccc1)C(=O)NC1CCCC1 (configuration not stated) | > 100 |  |  |
| CC(NC(=O)c1ccncc1)c1ccc(Cl)cc1Cl (configuration not stated) | > 100 |  |  |
| CCOC(=O)[C@]12Cc3ccccc3[C@H]1N(C)C(=O)c1cc(OC)ccc12 | > 100 | > 100 µM (inactive) |  |
| O=C(O)CC1(CC(=O)Nc2ccc3sccc3c2)CCCCC1 | > 100 |  |  |
| O=C(Nc1cccc2ccccc12)c1ccc([N+](=O)[O-])o1 | > 100 | > 100 µM (inactive) |  |
| Cc1ccc(CNS(=O)(=O)c2ccc3c(c2)NC(=O)CS3)cc1 | 8.08 | > 100 µM (inactive) |  |
| CN(c1ccccc1)S(=O)(=O)c1cccc(NC(=O)CCN2C(=O)C3CCCCC3C2=O)c1 (configuration not stated) | 9.42 | > 100 µM (inactive) |  |
| O=C(Nc1ccc(Br)cc1)c1cccnc1N1CCCCC1 | > 100 |  |  |
| C(=C/c1nccc2c1[nH]c1ccccc12)/c1ccc2c(c1)OCO2 | > 100 |  |  |
| Cn1cnc([N+](=O)[O-])c1Oc1ccccc1 | > 100 |  |  |
| CSc1nc2nc3c(cc2c(=O)n1-c1ccccc1C)CCCC3 | 6.76 |  |  |
| CCOc1cc(/C=C(\CC(=O)O)c2nc3ccccc3s2)ccc1OC | > 100 |  |  |
| CCOc1ccc(S(=O)(=O)N(C)c2ccc(OCC(=O)NCc3cccnc3)cc2)cc1 | > 100 |  |  |
| O=C(Nc1ccc(-c2nnc3n2CCCCC3)cc1)c1cc2ccccc2o1 | > 100 |  |  |
| Cc1cccc(-n2cnc3cc([N+](=O)[O-])ccc32)c1 | > 100 |  |  |
| CCOC(=O)C(C)Sc1nc(N2CCOCC2)c2c(c1C#N)CC(C)(C)OC2 (configuration not stated) | > 100 |  |  |
| Cc1cc(Br)cn2c(Cc3cccc(Cl)c3)c(-c3ccco3)nc12 | > 100 |  |  |
| Cn1ccc2cc(-c3ccc4ncnc(NCc5cccs5)c4c3)ccc21 | > 100 |  |  |
| COc1ccc2c(c1)c1ncn(Cc3ccccn3)c(=O)c1n2C | > 100 |  |  |
| Cc1ccc(C(=O)Nc2ccc3ncccc3c2)cc1 | > 100 |  |  |
| C=CCNC(=O)c1ccccc1CCc1ccccc1 | > 100 |  |  |
| Nc1ccc(C(=O)OCCc2ccccc2)cc1 | > 100 |  |  |
| CCOc1cccc2sc(N(CCCN(C)C)C(=O)c3ccc(S(=O)(=O)N4CCCCCC4)cc3)nc12 |  | > 100 µM (inactive) | > 100 |

| Structure (SMILES) | AC50 [1] [µM] | AC50 [2] | AC50 [3] [µM] |
| --- | --- | --- | --- |
| O=C(Nc1cccc(O)c1)c1cccc(S(=O)(=O)Nc2cccc(O)c2)c1 | > 100 |  |  |
| COC(=O)[C@@H](Cc1c[nH]c2ccccc12)NCc1cccc(B(O)O)c1 |  | > 100 µM (inactive) | > 100 |
| COc1ccc(NC(=O)CN(c2ccccc2OC)S(=O)(=O)c2cccs2)cc1Cl |  | > 100 µM (inactive) | > 100 |
| Cn1cnc(CCNC(=O)C[C@H]2CC[C@@H]3[C@H](COC[C@H](O)CN3C(=O)Nc3ccc(Cl)cc3)O2)c1 |  | > 100 µM (inactive) | > 100 |
| Cc1cc(CNC(=O)COc2ccc(C)c(C)c2)c2ccccc2n1 |  | > 100 µM (inactive) | 39 |
| O=C(NCc1ccc(Cl)cc1)c1csc(-c2cccnc2)n1 |  | > 100 µM (inactive) | 49.1 |
| Cc1cc(NC(=O)CSc2nccn2-c2cccc(C)c2C)no1 |  | > 100 µM (inactive) | > 100 |
| CCCN(CC(=O)Nc1ccccc1C)C(=O)c1cccc(S(=O)(=O)N2CCc3ccccc3C2)c1 |  | > 100 µM (inactive) | 51.9 |
| CCN(CC)CC(=O)Nc1ccc(-c2ccc(NC(=O)CN(CC)CC)c(OC)c2)cc1OC |  | > 100 µM (inactive) | > 100 |
| CCCCNC(=O)c1onc(CSc2cc(C)cc(C)c2)c1C(=O)O |  | > 100 µM (inactive) | 28 |
| CN1C(=O)c2cccc3c(S(=O)(=O)NCCc4ccccc4)ccc1c23 |  | > 100 µM (inactive) | > 100 |
| Cc1ccc(OCCn2c(=S)[nH]c3c(N)ncnc32)cc1 |  | > 100 µM (inactive) | 34.3 |
| O=C(Cn1c(CO)nc2ccccc21)NCCc1ccc(F)cc1 |  | > 100 µM (inactive) | > 100 |
| CCN(c1ccccc1)S(=O)(=O)c1ccc(Cl)c(C(=O)NCc2ccco2)c1 |  | > 100 µM (inactive) | 38.5 |
| CCOc1ccc(CCNC(=O)CCc2nc3ccccc3[nH]2)cc1OCC |  | > 100 µM (inactive) | > 100 |
| COC(=O)c1cc2ccccc2n1S(=O)(=O)c1ccccc1 | > 100 |  |  |
| O=C(c1cccs1)c1c[nH]cc1-c1ccccc1 | > 100 |  |  |
| COc1cc2c(cc1OC)CN(c1ccc([N+](=O)[O-])c(C(F)(F)F)c1)CC2 |  | > 100 µM (inactive) | > 100 |
| COc1ccc(C(=O)Nc2ccc(Nc3ccccc3)cc2)cc1[N+](=O)[O-] |  | > 100 µM (inactive) | > 100 |
| O=C(Cc1cccc(NC(=O)C2CCCN(C(=O)CCc3ccccc3)C2)c1)Nc1cccc(C(=O)N2CCCC2)c1 (configuration not stated) |  | > 100 µM (inactive) | > 100 |
| Cc1nc([N+](=O)[O-])c(Br)n1CC(=O)c1ccc(F)cc1 |  | > 100 µM (inactive) | > 100 |
| CCN(CC(=O)Nc1ccccc1OC)CC(=O)Nc1c(Cl)ccc(C)c1Cl |  | > 100 µM (inactive) | > 100 |
| Cc1c(C(=O)O)oc2ccc(S(=O)(=O)NC3CCCCCCC3)cc12 |  | > 100 µM (inactive) | 41.4 |

| Structure (SMILES) | AC50 [1] [µM] | AC50 [2] | AC50 [3] [µM] |
| --- | --- | --- | --- |
| CCOc1ccc(S(=O)(=O)Nc2ccc(S(=O)(=O)N3CCCC3)cc2)cc1 |  | > 100 µM (inactive) | 40.8 |
| Nc1[nH]c(C(=O)c2ccccc2)c(-c2ccc(Cl)cc2)c1C(=O)NCCc1c[nH]c2ccccc12 |  | > 100 µM (inactive) | > 100 |
| COc1ccc(CC(=O)NCc2csc(-c3cccs3)n2)cc1OC |  | > 100 µM (inactive) | > 100 |
| CCCC(=O)Nc1cccc(C(=O)Nc2ccccc2OCC)c1 | > 100 |  |  |
| C#CC(C)(C)NC(=O)c1ccc(-c2ccccc2F)cc1 | > 100 |  |  |
| O=C(NCc1ccc(-c2nc3ccccc3s2)cc1)c1ccco1 |  | > 100 µM (inactive) | 4.43 |
| COc1ccc(OC)c(-c2nnc3n2N=C(c2ccc(OC)c(OC4CCOC4)c2)CS3)c1 (configuration not stated) |  | > 100 µM (inactive) | > 100 |
| CS(=O)(=O)N(CC(=O)N1CCc2ccccc2C1)c1ccc(Br)cc1 |  | > 100 µM (inactive) | 47 |
| Cn1c(SCC(=O)Nc2ccccc2-c2ccccc2)nnc1-c1ccco1 |  | > 100 µM (inactive) | > 100 |
| S=C1SCN(Cc2cccnc2)CN1Cc1ccccc1 |  | > 100 µM (inactive) | > 100 |
| O=C(COC(=O)C12CC3CC(CC(O)(C3)C1)C2)NCCc1ccc(Cl)cc1 |  | > 100 µM (inactive) | > 100 |
| N#Cc1nc(-c2ccco2)oc1NCc1ccccc1Cl | > 100 |  |  |
| Cc1cccc(Nc2nc(-c3ccc(F)cc3)cs2)n1 |  | > 100 µM (inactive) | > 100 |
| COc1ccc(-c2nc3ccc(Cl)cn3c2Cc2cccc(F)c2)cc1OC |  | > 100 µM (inactive) | 51.6 |
| c1ccc(CSCc2ccccc2)cc1 | > 100 |  |  |
| O=C(c1ccc(-c2ccccc2)c(F)c1)C1CCCN(CCCn2cccn2)C1 (configuration not stated) |  | > 100 µM (inactive) | > 100 |
| CCOc1ccc(OCCn2c(=S)[nH]c3c(N)ncnc32)cc1 |  | > 100 µM (inactive) | 47.8 |
| CC(=O)c1c(N2CCOCC2)nc2ccc(Cl)cc2c1-c1ccccc1 |  | > 100 µM (inactive) | > 100 |
| CCOc1ccc2oc(-c3ccccc3)c(C(=O)N(C)C)c2c1 | > 100 |  |  |
| COc1ccccc1NC(=O)COC(=O)Cc1c[nH]c2ccccc12 | > 100 |  |  |
| NC(=O)c1ccsc1NC(=O)COC(=O)CCOc1ccccc1 |  | > 100 µM (inactive) | 46.3 |
